{"source": "patent US20170190671A1", "about": "“BIS(ARYL)CATECHOL DERIVATIVES AS HERBICIDES” (E I DU PONT DE NEMOURS AND COMPANY, priority 2014, published 2017)", "format_in_all_cases": "in vivo", "key": {"[1]": {"tested_on": "giant foxtail (Setaria faberii)", "assay": "Test C postemergence", "details": "Setaria faberi, post-emergence, 336 h, Postemergence, scale 0 to 100, read-out: Plant response rating, Foxtail, Giant", "summary_of_the_method": "(§1)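 Seeded loam-sand soil (preemergence) or young potted plants of 2-18 cm (postemergence) received test chemical formulated with surfactant in a non-phytotoxic solvent. Pots were kept in the greenhouse for 13-15 days before a visual 0-100 control rating relative to controls.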"}, "[2]": {"tested_on": "galium (catchweed bedstraw, Galium aparine)", "assay": "Test C postemergence", "details": "Galium, post-emergence, 336 h, Postemergence, scale 0 to 100, read-out: Plant response rating, Galium", "summary_of_the_method": "as §1"}, "[3]": {"tested_on": "morningglory (Ipomoea coccinea)", "assay": "Test C postemergence", "details": "Ipomoea, post-emergence, 336 h, Postemergence, scale 0 to 100, read-out: Plant response rating, Morningglory", "summary_of_the_method": "as §1"}, "[4]": {"tested_on": "wheat (Triticum aestivum)", "assay": "Test A postemergence", "details": "Triticum aestivum, post-emergence, 240 h, 0 to 100 scale, read-out: Plant response rating, Wheat", "summary_of_the_method": "(§2)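 Injury scores run from 0, no effect, to 100, complete control, judged by eye against untreated plants roughly 10 days after treatment. Chemicals carried a surfactant in a non-phytotoxic solvent and went onto loam–sand soil preemergence or onto one- to two-leaf seedlings postemergence.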"}, "[5]": {"tested_on": "ragweed (common ragweed, Ambrosia elatior)", "assay": "Test A postemergence", "details": "Ambrosia artemisiifolia, post-emergence, 240 h, 0 to 100 scale, read-out: Plant response rating, Ragweed", "summary_of_the_method": "as §2"}, "[6]": {"tested_on": "giant foxtail (Setaria faberii)", "assay": "Test A postemergence", "details": "Setaria faberi, post-emergence, 240 h, 0 to 100 scale, read-out: Plant response rating, Foxtail, Giant", "summary_of_the_method": "as §2"}, "[7]": {"tested_on": "galium (catchweed bedstraw, Galium aparine)", "assay": "Test A postemergence", "details": "Galium, post-emergence, 240 h, 0 to 100 scale, read-out: Plant response rating, Galium", "summary_of_the_method": "as §2"}, "[8]": {"tested_on": "corn (Zea mays)", "assay": "Test A postemergence", "details": "Zea mays, post-emergence, 240 h, 0 to 100 scale", "summary_of_the_method": "as §2"}, "[9]": {"tested_on": "pigweed (Amaranthus retroflexus)", "assay": "Test A postemergence", "details": "Amaranthus retroflexus, post-emergence, 240 h, 0 to 100 scale, read-out: Plant response rating, Pigweed", "summary_of_the_method": "as §2"}, "[10]": {"tested_on": "barnyardgrass (Echinochloa crus-galli)", "assay": "Test A postemergence", "details": "Echinochloa crus-galli, post-emergence, 240 h, 0 to 100 scale, read-out: Plant response rating, Barnyardgrass", "summary_of_the_method": "as §2"}, "[11]": {"tested_on": "blackgrass (Alopecurus myosuroides)", "assay": "Test A postemergence", "details": "Alopecurus myosuroides, post-emergence, 240 h, 0 to 100 scale, read-out: Plant response rating, Blackgrass", "summary_of_the_method": "as §2"}, "[12]": {"tested_on": "kochia (Kochia scoparia)", "assay": "Test A postemergence", "details": "Bassia scoparia, post-emergence, 240 h, 0 to 100 scale, read-out: Plant response rating, Kochia", "summary_of_the_method": "as §2"}, "[13]": {"tested_on": "Italian ryegrass (Lolium multiflorum)", "assay": "Test A postemergence", "details": "Lolium multiflorum, post-emergence, 240 h, 0 to 100 scale, read-out: Plant response rating, Ryegrass, Italian", "summary_of_the_method": "as §2"}, "[14]": {"tested_on": "rice (Oryza sativa)", "assay": "Test B flooded paddy", "details": "Oryza sativa, 336 h; 250 g ai/ha, Flood, 13 to 15 days, scale 0 (no effect) to 100 (complete control); read-out: Plant response rating, Rice", "summary_of_the_method": "(§3)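 In-water treatment: compound dosed into 3 cm flood over soil, water level unchanged throughout. Controls run alongside; visual assessment at day 13–15.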"}, "[15]": {"tested_on": "sedge, umbrella (small-flower umbrella sedge, Cyperus difformis)", "assay": "Test B flooded paddy", "details": "Cyperus difformis, 336 h; 250 g ai/ha, Flood, 13 to 15 days, scale 0 (no effect) to 100 (complete control); read-out: Plant response rating, Sedge, Umbrella", "summary_of_the_method": "as §3"}, "[16]": {"tested_on": "barnyardgrass (Echinochloa crus-galli)", "assay": "Test B flooded paddy", "details": "Echinochloa crus-galli, 336 h; 250 g ai/ha, Flood, 13 to 15 days, scale 0 (no effect) to 100 (complete control); read-out: Plant response rating, Barnyardgrass", "summary_of_the_method": "as §3"}, "[17]": {"tested_on": "ducksalad (Heteranthera limosa)", "assay": "Test B flooded paddy", "details": "Heteranthera limosa, 336 h; 250 g ai/ha, Flood, 13 to 15 days, scale 0 (no effect) to 100 (complete control); read-out: Plant response rating, Ducksalad", "summary_of_the_method": "as §3"}, "[18]": {"tested_on": "ragweed (common ragweed, Ambrosia elatior)", "assay": "Test A preemergence", "details": "Ambrosia artemisiifolia, pre-emergence, 240 h, 0 to 100 scale (0 no effect, 100 complete control), read-out: Ragweed plant response rating", "summary_of_the_method": "as §2"}, "[19]": {"tested_on": "giant foxtail (Setaria faberii)", "assay": "Test A preemergence", "details": "Setaria faberi, pre-emergence, 240 h, 0 to 100 scale (0 no effect, 100 complete control), read-out: Foxtail, Giant plant response rating", "summary_of_the_method": "as §2"}, "[20]": {"tested_on": "pigweed (Amaranthus retroflexus)", "assay": "Test A preemergence", "details": "Amaranthus retroflexus, pre-emergence, 240 h, 0 to 100 scale (0 no effect, 100 complete control), read-out: Pigweed plant response rating", "summary_of_the_method": "as §2"}, "[21]": {"tested_on": "barnyardgrass (Echinochloa crus-galli)", "assay": "Test A preemergence", "details": "Echinochloa crus-galli, pre-emergence, 240 h, 0 to 100 scale (0 no effect, 100 complete control), read-out: Barnyardgrass plant response rating", "summary_of_the_method": "as §2"}, "[22]": {"tested_on": "kochia (Kochia scoparia)", "assay": "Test A preemergence", "details": "Bassia scoparia, pre-emergence, 240 h, 0 to 100 scale (0 no effect, 100 complete control), read-out: Kochia plant response rating", "summary_of_the_method": "as §2"}, "[23]": {"tested_on": "Italian ryegrass (Lolium multiflorum)", "assay": "Test A preemergence", "details": "Lolium multiflorum, pre-emergence, 240 h, 0 to 100 scale (0 no effect, 100 complete control), read-out: Ryegrass, Italian plant response rating", "summary_of_the_method": "as §2"}}}
{"smiles": "N#Cc1cccc(Oc2ncc(Cl)cn2)c1Oc1ncc(C(F)(F)F)cn1", "note": "[Compound 38, 3-[(5-chloro-2-pyrimidinyl)oxy]-2-[[5-(trifluoromethyl)-2-pyrimidinyl]oxy]-benzonitrile]", "values": [{"measurement": "pest or weed control at 16 g/ha", "setting": "[1]; 16 g ai/ha", "value": 5, "unit": "%"}, {"measurement": "pest or weed control at 31 g/ha", "setting": "[1]; 31 g ai/ha", "value": 10, "unit": "%"}, {"measurement": "pest or weed control at 62 g/ha", "setting": "[1]; 62 g ai/ha", "value": 10, "unit": "%"}, {"measurement": "pest or weed control at 125 g/ha", "setting": "[1]; 125 g ai/ha", "value": 25, "unit": "%"}, {"measurement": "pest or weed control at 16 g/ha", "setting": "[2]; 16 g ai/ha", "value": 70, "unit": "%"}, {"measurement": "pest or weed control at 31 g/ha", "setting": "[2]; 31 g ai/ha", "value": 85, "unit": "%"}, {"measurement": "pest or weed control at 62 g/ha", "setting": "[2]; 62 g ai/ha", "value": 90, "unit": "%"}, {"measurement": "pest or weed control at 125 g/ha", "setting": "[2]; 125 g ai/ha", "value": 90, "unit": "%"}, {"measurement": "pest or weed control at 31 g/ha", "setting": "[3]; 31 g ai/ha", "value": 85, "unit": "%"}, {"measurement": "pest or weed control at 62 g/ha", "setting": "[3]; 62 g ai/ha", "value": 85, "unit": "%"}, {"measurement": "pest or weed control at 125 g/ha", "setting": "[3]; 125 g ai/ha", "value": 90, "unit": "%"}, {"measurement": "plant injury at 31 g/ha", "setting": "[4]; 31 g ai/ha", "value": 20, "unit": "%"}, {"measurement": "plant injury at 125 g/ha", "setting": "[4]; 125 g ai/ha", "value": 90, "unit": "%"}, {"measurement": "pest or weed control at 31 g/ha", "setting": "[5]; 31 g ai/ha", "value": 40, "unit": "%"}, {"measurement": "pest or weed control at 125 g/ha", "setting": "[5]; 125 g ai/ha", "value": 70, "unit": "%"}, {"measurement": "pest or weed control at 31 g/ha", "setting": "[6]; 31 g ai/ha", "value": 100, "unit": "%"}, {"measurement": "pest or weed control at 125 g/ha", "setting": "[6]; 125 g ai/ha", "value": 100, "unit": "%"}, {"measurement": "pest or weed control at 31 g/ha", "setting": "[7]; 31 g ai/ha", "value": 80, "unit": "%"}, {"measurement": "pest or weed control at 125 g/ha", "setting": "[7]; 125 g ai/ha", "value": 100, "unit": "%"}, {"measurement": "Corn plant response rating (crop injury, 0 = no effect, 100 = complete kill) at 31 g/ha", "setting": "[8]; 31 g ai/ha", "value": 40, "unit": "%"}, {"measurement": "Corn plant response rating (crop injury, 0 = no effect, 100 = complete kill) at 125 g/ha", "setting": "[8]; 125 g ai/ha", "value": 90, "unit": "%"}, {"measurement": "pest or weed control at 31 g/ha", "setting": "[9]; 31 g ai/ha", "value": 100, "unit": "%"}, {"measurement": "pest or weed control at 125 g/ha", "setting": "[9]; 125 g ai/ha", "value": 100, "unit": "%"}, {"measurement": "pest or weed control at 31 g/ha", "setting": "[10]; 31 g ai/ha", "value": 90, "unit": "%"}, {"measurement": "pest or weed control at 125 g/ha", "setting": "[10]; 125 g ai/ha", "value": 90, "unit": "%"}, {"measurement": "pest or weed control at 31 g/ha", "setting": "[11]; 31 g ai/ha", "value": 40, "unit": "%"}, {"measurement": "pest or weed control at 125 g/ha", "setting": "[11]; 125 g ai/ha", "value": 90, "unit": "%"}, {"measurement": "pest or weed control at 31 g/ha", "setting": "[12]; 31 g ai/ha", "value": 100, "unit": "%"}, {"measurement": "pest or weed control at 125 g/ha", "setting": "[12]; 125 g ai/ha", "value": 100, "unit": "%"}, {"measurement": "pest or weed control at 31 g/ha", "setting": "[13]; 31 g ai/ha", "value": 50, "unit": "%"}, {"measurement": "pest or weed control at 125 g/ha", "setting": "[13]; 125 g ai/ha", "value": 90, "unit": "%"}, {"measurement": "plant injury at 250 g/ha", "setting": "[14]", "value": 45, "unit": "%"}, {"measurement": "pest or weed control at 250 g/ha", "setting": "[15]", "value": 100, "unit": "%"}, {"measurement": "pest or weed control at 250 g/ha", "setting": "[16]", "value": 85, "unit": "%"}, {"measurement": "pest or weed control at 250 g/ha", "setting": "[17]", "value": 100, "unit": "%"}, {"measurement": "pest or weed control at 31 g/ha", "setting": "[18]; 31 g ai/ha", "value": 30, "unit": "%"}, {"measurement": "pest or weed control at 125 g/ha", "setting": "[18]; 125 g ai/ha", "value": 90, "unit": "%"}, {"measurement": "pest or weed control at 31 g/ha", "setting": "[19]; 31 g ai/ha", "value": 100, "unit": "%"}, {"measurement": "pest or weed control at 125 g/ha", "setting": "[19]; 125 g ai/ha", "value": 100, "unit": "%"}, {"measurement": "pest or weed control at 31 g/ha", "setting": "[20]; 31 g ai/ha", "value": 100, "unit": "%"}, {"measurement": "pest or weed control at 125 g/ha", "setting": "[20]; 125 g ai/ha", "value": 100, "unit": "%"}, {"measurement": "pest or weed control at 31 g/ha", "setting": "[21]; 31 g ai/ha", "value": 80, "unit": "%"}, {"measurement": "pest or weed control at 125 g/ha", "setting": "[21]; 125 g ai/ha", "value": 100, "unit": "%"}, {"measurement": "pest or weed control at 31 g/ha", "setting": "[22]; 31 g ai/ha", "value": 90, "unit": "%"}, {"measurement": "pest or weed control at 125 g/ha", "setting": "[22]; 125 g ai/ha", "value": 100, "unit": "%"}, {"measurement": "pest or weed control at 31 g/ha", "setting": "[23]; 31 g ai/ha", "value": 10, "unit": "%"}, {"measurement": "pest or weed control at 125 g/ha", "setting": "[23]; 125 g ai/ha", "value": 90, "unit": "%"}]}
